This is an account of results in ChEMBL document CHEMBL6096702, “Discovery of a Novel p38α-MK2 Complex Inhibitor as a Potential Choice for Autoimmune Diseases” (J Med Chem, 2025).

In brackets after ≈: the same amount, converted by molar mass. Activity calls are given as the source filed them. The rule behind the calls is not given here.

Series [1] can be described thus: Oral bioavailability in male Sprague-Dawley rat at 2 mg/kg measured after 24 hrs by LC-MS/MS analysis. Type of series: ADME, organism-based. Particulars: in vivo.
Series [2] in a line: Inhibition of LPS-induced IL-1beta production in human PBMC cells preincubated with compound for 1 hrs followed by LPS addition and measured after 4 hrs. The class given is functional, cell-based.
A short description of series [3]: Selectivity ratio of IC50 for inhibition of N-terminal GST-tagged wildtype human P38alpha (4 to 152 residues) extracted from Escherichia coli/GST-tagged PRAK (unknown origin) to IC50 for inhibition of N-terminal GST-tagged wildtype human P38alpha (4 to 152 residues) extracted from Escherichia coli/GST-tagged MK2 (unknown origin).
Series [4] in a line: Cmax in male Sprague-Dawley rat at 2 mg/kg, po measured after 24 hrs by LC-MS/MS analysis. Particulars: in vivo. Type of series: ADME, organism-based.
The nature of series [5]: Half-life in male Sprague-Dawley rat at 1 mg/kg, iv measured after 24 hrs by LC-MS/MS analysis. The class given is ADME, organism-based. Particulars: in vivo.
Series [6] is described as follows: Clearance in male Sprague-Dawley rat at 1 mg/kg, iv measured after 24 hrs by LC-MS/MS analysis. Type of series: ADME, organism-based. Particulars: in vivo.
Series [7] in a line: AUClast in male Sprague-Dawley rat at 1 mg/kg, iv measured after 24 hrs by LC-MS/MS analysis. Type of series: ADME, organism-based. Particulars: in vivo.
Series [8] in a line: Inhibition of N-terminal GST-tagged wildtype human P38alpha (4 to 152 residues) extracted from Escherichia coli/GST-tagged PRAK (unknown origin) assessed as reduction in HSP27 phosphorylation incubated for 2 hrs in presence of ATP and HSP27-FITC peptide by fluorescence polarization based IMAP assay.
Series [9] can be described thus: Volume of distribution at steady state in male Sprague-Dawley rat at 1 mg/kg, iv measured after 24 hrs by LC-MS/MS analysis. Type of series: ADME, organism-based. Particulars: in vivo, read-out: Vdss.
The nature of series [10]: MRT in male Sprague-Dawley rat at 1 mg/kg, iv measured after 24 hrs by LC-MS/MS analysis. The class given is ADME, organism-based. Particulars: in vivo.
Series [11] in a line: AUClast in male Sprague-Dawley rat at 2 mg/kg, po measured after 24 hrs by LC-MS/MS analysis. The class given is ADME, organism-based. Particulars: in vivo.
Series [12] in a line: Inhibition of LPS-induced TNF-alpha production in human PBMC cells preincubated with compound for 1 hrs followed by LPS addition and measured after 4 hrs. Type of series: functional, cell-based.
Series [13] is described as follows: MRT in male Beagle dog at 1 mg/kg, iv measured after 24 hrs by LC-MS/MS analysis. The class given is ADME, organism-based, Canis lupus familiaris. Particulars: in vivo.
A short description of series [14]: Half-life in male Beagle dog at 1 mg/kg, iv measured after 24 hrs by LC-MS/MS analysis. The class given is ADME, organism-based, Canis lupus familiaris. As to conditions: in vivo.
A short description of series [15]: AUC (0 to 24 hrs) in female Lewis rat at 3 mg/kg, po measured after 24 hrs by LC-MS/MS analysis. The class given is ADME, organism-based. Particulars: in vivo.
Series [16] can be described thus: Solubility of compound in PBS at pH 7.4 measured after 4 to 24 hrs by LC-MS analysis. The class given is physicochemical. Particulars: time 4-24 hrs.
Series [17] can be described thus: AUClast in male Beagle dog at 2 mg/kg, po measured after 24 hrs by LC-MS/MS analysis. The class given is ADME, organism-based, Canis lupus familiaris. As to conditions: in vivo.
The nature of series [18]: Clearance in male Beagle dog at 1 mg/kg, iv measured after 24 hrs by LC-MS/MS analysis. The class given is ADME, organism-based, Canis lupus familiaris. As to conditions: in vivo.
Series [19] can be described thus: Volume of distribution at steady state in male Beagle dog at 1 mg/kg, iv measured after 24 hrs by LC-MS/MS analysis. Type of series: ADME, organism-based, Canis lupus familiaris. Particulars: in vivo, read-out: Vdss.
A further series relates to Rattus norvegicus. Briefly: Antiarthritic activity in Mycobacterium tuberculosis H37R-induced female Lewis rat model of arthritis assessed as reduction in paw inflammation at 3 mg/kg, po administered twice daily for 15 days starting from day 13 after adjuvant administration by micro-CT analysis. The class given is functional, organism-based. Particulars: time 15.0 day.

Series [20] is described as follows: Cmax in female Lewis rat at 3 mg/kg, po measured after 24 hrs by LC-MS/MS analysis. Type of series: ADME, organism-based. As to conditions: in vivo.
Series [21] in a line: Inhibition of N-terminal GST-tagged wildtype human P38alpha (4 to 152 residues) extracted from Escherichia coli/GST-tagged MK2 (unknown origin) assessed as reduction in HSP27 phosphorylation incubated for 2 hrs in presence of ATP and HSP27-FITC peptide by fluorescence polarization based IMAP assay.
The nature of series [22]: Half-life in female Lewis rat at 1 mg/kg, po measured after 24 hrs by LC-MS/MS analysis. The class given is ADME, organism-based. Particulars: in vivo.
Series [23] deals with PBMC. Briefly: Inhibition of LPS-induced IL-8 production in human PBMC cells at 0.01 to 10000 nM preincubated with compound for 1 hrs followed by LPS addition and measured after 4 hrs. The class given is functional, cell-based. Particulars: dose 0.01-10000 nM, time 5.0 hrs.
Series [24] can be described thus: Cmax in female Lewis rat at 1 mg/kg, po measured after 24 hrs by LC-MS/MS analysis. The class given is ADME, organism-based. As to conditions: in vivo.
Series [25] in a line: AUC (0 to 24 hrs) in female Lewis rat at 1 mg/kg, po measured after 24 hrs by LC-MS/MS analysis. The class given is ADME, organism-based. Particulars: in vivo.
The nature of series [26]: AUClast in male Beagle dog at 1 mg/kg, iv measured after 24 hrs by LC-MS/MS analysis. As to conditions: in vivo. The class given is ADME, organism-based, Canis lupus familiaris.
Series [27] in a line: Half-life in female Lewis rat at 3 mg/kg, po measured after 24 hrs by LC-MS/MS analysis. Type of series: ADME, organism-based. As to conditions: in vivo.
Series [28] deals with PBMC. Briefly: Inhibition of LPS-induced IL-6 production in human PBMC cells at 0.01 to 10000 nM preincubated with compound for 1 hrs followed by LPS addition and measured after 4 hrs. Type of series: functional, cell-based. As to conditions: dose 0.01-10000 nM, time 5.0 hrs.
The test system of series [29] is PBMC. The series can be described thus: Inhibition of LPS-induced TNF-alpha production in human PBMC cells at 0.01 to 10000 nM preincubated with compound for 1 hrs followed by LPS addition and measured after 4 hrs. The class given is functional, cell-based. As to conditions: dose 0.01-10000 nM, time 5.0 hrs.
The nature of series [30]: Oral bioavailability in male Beagle dog at 2 mg/kg measured after 24 hrs by LC-MS/MS analysis. The class given is ADME, organism-based, Canis lupus familiaris. As to conditions: in vivo.
Series [31] is described as follows: Cmax in male Beagle dog at 2 mg/kg, po measured after 24 hrs by LC-MS/MS analysis. As to conditions: in vivo. Type of series: ADME, organism-based, Canis lupus familiaris.

With `Cc1cnc(-c2cccc(C(C)(C)O)c2F)c(F)c1-n1c(C)cc(OCc2ncc(F)cc2F)c(Cl)c1=O`, the bioavailability (as a rule, the share of a dose that reaches the circulation, judged against a reference dose that is usually intravenous) in [1] came to 40%. The IC50 (commonly the midpoint of a concentration-inhibition curve) was 0.02 nM in series [2], 1 nM in series [8] and < 0.1 nM in series [12]. Also, the Ratio IC50 in [3] came to 125. The concentration in series [4] peaked (Cmax) at 283 ng/mL. Further, the half-life (as a rule, how long it takes for the measured level to halve) in series [5] was 0.9 h. Further, the clearance (in general, the rate of elimination divided by the concentration) in [6] amounted to 16.3 mL/min/kg. The figures for the AUC(0-t) at 24 h in series [7] and in series [11] were 1080 ng·h/mL and 861 ng·h/mL, respectively. Moreover, the Vd in series [9] was determined as 1.1 L/kg. Further, the MRT (in general, the average time that molecules of a dose stay in the body) in series [10] was 1.2 h.
Take `Cc1cnc(-c2ccnc(C(C)(C)O)n2)cc1-n1c(C)cc(OCc2ncc(F)cc2F)c(Cl)c1=O` [ZUNSEMETINIB]: the results for the MRT in series [13] and in series [10] were 3.4 h and 1.1 h, respectively. The bioavailability in [1] amounted to 71%; in series [30], 73%. Moreover, the half-life in series [14] is 3.4 h; in series [5], 1.1 h; in series [22], 1.9 h; in series [27] it was 1.6 h. Besides, the Ratio IC50 in [3] came out at 971. Further, the area under the curve AUC(0-t) (as a rule, exposure summed from dosing to a finite time, without extrapolation to infinity) at 24 h amounted to 2520 ng·h/mL in series [15]; 1280 ng·h/mL in series [7]; 3230 ng·h/mL in series [17]; 1830 ng·h/mL in series [11]; 682 ng·h/mL in [25]; 2230 ng·h/mL in [26]. Moreover, the Cmax (usually the maximum level reached in the sampled fluid or tissue) amounted to 415 ng/mL in series [4], 781 ng/mL in series [20], 217 ng/mL in series [24] and 587 ng/mL in series [31]. The solubility (commonly how much of the substance goes into solution per volume) in [16] came to 5.6 µg/mL (≈ 10.9 µM). In addition, the figures for the clearance in [6] and in series [18] were 13.1 mL/min/kg and 7.5 mL/min/kg, respectively. For the same compound, the values for the Vd in series [19] and in [9] were 1.5 L/kg and 0.8 L/kg, respectively. The result with Rattus norvegicus was inactive. Also, the IC50 was 6410 nM in [8] and 6.6 nM in [21]. For the same compound, the inhibition result in the series with PBMC [23], in the series with PBMC [28] and with PBMC [29] was “Active” each time.
